Assays:
[1] = target: T1, eNOS and Hb α complex (Mus musculus, UniProt P70313); experiment: Proximity ligation assay for eNOS and Hb α on thoracodorsal arteries
T1 construct: from tissue; host or cells: isolated mouse thoracodorsal arteries
T1 sequence (P70313 2-1202 limits assumed): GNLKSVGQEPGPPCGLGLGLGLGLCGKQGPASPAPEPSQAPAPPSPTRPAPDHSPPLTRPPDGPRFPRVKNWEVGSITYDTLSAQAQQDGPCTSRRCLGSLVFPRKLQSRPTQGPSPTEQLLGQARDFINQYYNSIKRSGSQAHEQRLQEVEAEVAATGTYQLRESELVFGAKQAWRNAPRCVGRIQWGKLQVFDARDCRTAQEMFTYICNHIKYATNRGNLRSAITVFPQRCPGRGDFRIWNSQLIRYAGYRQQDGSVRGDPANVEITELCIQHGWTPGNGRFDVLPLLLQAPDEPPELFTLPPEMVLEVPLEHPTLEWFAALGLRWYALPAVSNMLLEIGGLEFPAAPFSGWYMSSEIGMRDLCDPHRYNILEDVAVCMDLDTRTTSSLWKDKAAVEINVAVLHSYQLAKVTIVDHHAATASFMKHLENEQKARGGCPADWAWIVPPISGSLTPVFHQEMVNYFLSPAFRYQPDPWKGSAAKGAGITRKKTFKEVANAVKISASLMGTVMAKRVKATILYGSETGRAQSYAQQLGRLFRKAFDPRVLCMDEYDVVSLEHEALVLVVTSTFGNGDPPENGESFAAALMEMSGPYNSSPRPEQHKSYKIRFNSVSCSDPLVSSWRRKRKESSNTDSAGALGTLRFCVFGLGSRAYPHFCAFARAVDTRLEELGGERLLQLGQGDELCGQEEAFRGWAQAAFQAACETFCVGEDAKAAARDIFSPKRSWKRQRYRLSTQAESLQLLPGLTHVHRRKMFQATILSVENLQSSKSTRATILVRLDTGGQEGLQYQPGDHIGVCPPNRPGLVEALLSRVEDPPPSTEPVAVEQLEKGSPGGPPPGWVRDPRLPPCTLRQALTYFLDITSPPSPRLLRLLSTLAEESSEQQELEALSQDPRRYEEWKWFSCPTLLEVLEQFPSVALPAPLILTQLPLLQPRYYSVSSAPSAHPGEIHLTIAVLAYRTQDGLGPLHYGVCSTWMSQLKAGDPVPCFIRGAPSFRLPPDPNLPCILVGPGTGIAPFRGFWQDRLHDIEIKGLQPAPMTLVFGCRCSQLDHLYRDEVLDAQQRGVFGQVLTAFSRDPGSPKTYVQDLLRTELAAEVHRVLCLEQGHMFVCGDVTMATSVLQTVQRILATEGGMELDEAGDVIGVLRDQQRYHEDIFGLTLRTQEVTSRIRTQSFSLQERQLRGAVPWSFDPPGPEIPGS
Protocol: Isolated thoracodorsal arteries were perfused with Scr X or Hb α X peptide (5 μmol/L) for 20 minutes and immediately immersed in 4% paraformaldehyde, paraffin-embedded and sectioned as previously described^12. Next, sections were de-paraffinized, blocked and incubated with 1:500 mouse anti-eNOS (BD Biosciences), 1:500 rabbit anti-Hb α and 1:500 mouse anti-caveolin-1 (BD Biosciences) primary antibodies overnight at 4° C. The following day, secondary antibodies conjugated with oligonucleotide PLA probes were added, ligated and rolling circle amplification with fluorescent oligonucleotides identified positive interaction sites as previously described^9. All images were visualized and captured using an Olympus Fluoview 1000 confocal microscope. For proximity ligation assay quantitation, positive interactions indicated by red punctates on the endothelium were counted and divided by the circumference of the lumen using Metamorph software.

[2] = system: thoracodorsal arteries from eNOS−/− animals; experiment: Pressure myography on thoracodorsal arteries from eNOS−/− mice; parameters: species or system mouse
[3] = Blood pressure by radio telemetry, C57BL/6 mice; type: in vivo, mouse; conditions: single bolus 0.125 mg/kg intraperitoneal
Protocol: Blood pressure was measured in conscious wildtype or eNOS^−/− mice under unrestrained conditions using implanted radio telemetry units. Continuous blood pressure measurements were recorded using Dataquest A.R.T. 20 software (DSI). To do so, mice were anesthetized with isoflurane and the catheters (TA11PA-C10, Data Sciences International (DSI)) were implanted in the left carotid artery. The catheter was tunneled through to the radiotransmitter, which was placed in a subcutaneous pouch along the flank. Mice were allowed to recover for seven days after surgery to regain normal circadian rhythms before arterial pressure measurements and experiments were initiated. Thirty minutes prior to peptide injection, continuous blood pressure readings were recorded. Then, a bolus injection of Scr X or Hb α X peptide, or saline was administered via an intraperitoneal injection at 0.125 mg/kg. One hour post-injection, blood pressure was recorded for a 30 minute duration. The change in blood pressure was calculated by subtracting the average pre injection blood pressure from the average post-injection blood pressure.

Peptide LSFPTTKTYF (SEQ ID NO:2), first ten amino acids of the Hb α sequence, with HIV-tat tag YGRKKRRQRRR at the N-terminus [Hb α X]
Inhibition of association ([1]; ex vivo studies): > 90% | Colocalization / protein-protein interaction between eNOS and Hb α ([1]; thoracodorsal arteries, 5 μmol/L peptide, 20 minutes): significant loss of protein-protein interaction | Magnitude of phenylephrine induced constriction [2]: no alteration | Systolic, diastolic and mean arterial blood pressure [3]: significant decrease

Source: US10253069B2, “Compositions and methods for regulating arterial tone” (University of Virginia Patent Foundation, priority 2012, dated 2019)
